Key:
FLT3-ITD = molecular target: T1, FLT3-ITD (Homo sapiens, UniProt P36888); assay: FLT3-ITD recombinant enzyme kinase assay (AlphaScreen); format: biochemical; conditions: 8 pt; read-out: FLT3_ITD 8 pt: IC50
T1 sequence (P36888 1-993): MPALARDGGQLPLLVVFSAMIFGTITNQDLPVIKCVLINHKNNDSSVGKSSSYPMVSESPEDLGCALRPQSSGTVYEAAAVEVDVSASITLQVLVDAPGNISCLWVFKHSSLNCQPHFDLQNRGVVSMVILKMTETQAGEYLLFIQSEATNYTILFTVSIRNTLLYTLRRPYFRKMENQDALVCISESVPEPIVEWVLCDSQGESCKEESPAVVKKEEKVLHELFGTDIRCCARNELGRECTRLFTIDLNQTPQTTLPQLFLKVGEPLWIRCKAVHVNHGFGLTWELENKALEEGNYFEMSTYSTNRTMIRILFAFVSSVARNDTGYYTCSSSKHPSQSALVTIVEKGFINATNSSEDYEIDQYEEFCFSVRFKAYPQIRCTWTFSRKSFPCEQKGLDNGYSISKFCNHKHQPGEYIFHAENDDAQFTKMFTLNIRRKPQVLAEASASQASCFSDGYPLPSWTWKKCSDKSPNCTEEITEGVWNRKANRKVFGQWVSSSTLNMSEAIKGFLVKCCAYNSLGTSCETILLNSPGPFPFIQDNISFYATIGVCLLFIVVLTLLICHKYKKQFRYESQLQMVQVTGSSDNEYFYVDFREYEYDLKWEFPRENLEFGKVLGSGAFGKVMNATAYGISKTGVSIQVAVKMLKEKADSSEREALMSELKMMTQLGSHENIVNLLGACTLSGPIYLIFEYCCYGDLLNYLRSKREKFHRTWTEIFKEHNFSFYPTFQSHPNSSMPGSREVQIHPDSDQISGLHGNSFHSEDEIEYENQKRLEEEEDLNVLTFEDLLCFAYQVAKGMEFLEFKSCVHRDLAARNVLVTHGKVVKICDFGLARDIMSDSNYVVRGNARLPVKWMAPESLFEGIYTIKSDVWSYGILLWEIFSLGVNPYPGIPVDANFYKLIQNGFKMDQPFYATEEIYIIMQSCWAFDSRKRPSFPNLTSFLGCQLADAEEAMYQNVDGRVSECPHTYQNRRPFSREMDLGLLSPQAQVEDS
Method in brief: (§1)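 Recombinant enzyme phosphorylated biotinylated poly(Glu4-Tyr) peptide (30 nM final) with ATP at 10 μM for FLT3-ITD and FLT3-D835Y or 100 μM for c-KIT. Phosphopeptide was detected by AlphaScreen with streptavidin donor and anti-phosphotyrosine (PY20) acceptor beads (10 μg/mL), read at 580 nm, for IC50 determination.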

FLT3-D835Y = molecular target: T2, FLT3-D835Y (Homo sapiens, UniProt P36888, D835Y); assay: FLT3-D835Y recombinant enzyme kinase assay (AlphaScreen); format: biochemical; conditions: 8 pt, GMean
T2 construct: purchased Invitrogen PV3967
T2 sequence (P36888 27-993 D835Y): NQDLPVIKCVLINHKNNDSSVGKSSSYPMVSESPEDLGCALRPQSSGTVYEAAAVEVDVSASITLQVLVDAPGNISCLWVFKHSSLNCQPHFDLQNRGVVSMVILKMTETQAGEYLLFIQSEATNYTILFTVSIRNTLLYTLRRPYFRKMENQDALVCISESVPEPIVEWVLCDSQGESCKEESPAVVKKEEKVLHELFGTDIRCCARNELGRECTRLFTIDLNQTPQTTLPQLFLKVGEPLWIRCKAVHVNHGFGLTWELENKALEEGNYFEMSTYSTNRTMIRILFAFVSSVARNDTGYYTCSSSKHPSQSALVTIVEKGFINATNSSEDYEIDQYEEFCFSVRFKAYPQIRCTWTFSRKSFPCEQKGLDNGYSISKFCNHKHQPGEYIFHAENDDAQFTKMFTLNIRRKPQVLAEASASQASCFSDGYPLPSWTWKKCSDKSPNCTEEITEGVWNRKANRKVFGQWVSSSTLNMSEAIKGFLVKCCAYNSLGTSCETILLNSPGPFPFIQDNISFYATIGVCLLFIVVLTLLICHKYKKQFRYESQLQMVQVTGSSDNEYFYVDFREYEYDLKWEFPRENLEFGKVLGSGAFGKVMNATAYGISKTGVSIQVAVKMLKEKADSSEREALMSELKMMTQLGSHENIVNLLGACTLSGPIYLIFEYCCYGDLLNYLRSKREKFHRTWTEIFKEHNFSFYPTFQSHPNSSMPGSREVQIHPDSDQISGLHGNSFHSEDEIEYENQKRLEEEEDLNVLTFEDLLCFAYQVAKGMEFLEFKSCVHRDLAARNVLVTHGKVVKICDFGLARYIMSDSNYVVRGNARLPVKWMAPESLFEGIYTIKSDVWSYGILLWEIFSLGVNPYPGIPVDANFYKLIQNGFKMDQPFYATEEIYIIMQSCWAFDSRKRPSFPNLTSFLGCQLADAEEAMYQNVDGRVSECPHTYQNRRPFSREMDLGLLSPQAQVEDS
Method in brief: as §1

| Structure (SMILES) | IC50 (FLT3-ITD) [µM] | IC50 (FLT3-D835Y) [µM] |
| --- | --- | --- |
| Cn1cc(Nc2ncc(-c3ccc(CC(=O)Nc4cncc(C(F)(F)F)c4)cc3F)cn2)cn1 [Compound P-0205, 2-[3-fluoro-4-[2-[(1-methylpyrazol-4-yl)amino]pyrimidin-5-yl]phenyl]-N-[5-(trifluoromethyl)-3-pyridyl]acetamide] | 0.0001 to 10 | 0.0001 to 10 |
| COc1ncc(NC(=O)Cc2ccc(-c3cnc(Nc4cnn(C)c4)nc3)c(F)c2)cc1C(F)(F)F [Compound P-0206, 2-[3-fluoro-4-[2-[(1-methylpyrazol-4-yl)amino]pyrimidin-5-yl]phenyl]-N-[6-methoxy-5-(trifluoromethyl)-3-pyridyl]acetamide] | 0.0001 to 10 | 0.0001 to 10 |
| Cn1cc(Nc2ncc(-c3cc(F)c(CC(=O)Nc4cncc(C(F)(F)F)c4)cc3F)cn2)cn1 [Compound P-0207, 2-[2,5-difluoro-4-[2-[(1-methylpyrazol-4-yl)amino]pyrimidin-5-yl]phenyl]-N-[5-(trifluoromethyl)-3-pyridyl]acetamide] | 0.0001 to 10 | 0.0001 to 10 |
| O=C(Cc1ccc(-c2cnc(Nc3cnn(C(F)F)c3)nc2)cc1)Nc1cncc(C(F)(F)F)c1 [Compound P-0209, 2-[4-[2-[[1-(difluoromethyl)pyrazol-4-yl]amino]pyrimidin-5-yl]phenyl]-N-[5-(trifluoromethyl)-3-pyridyl]acetamide] | 0.0001 to 10 | 0.0001 to 10 |
| Cc1ncc(NC(=O)Cc2ccc(-c3cnc(Nc4cnn(C(F)F)c4)nc3)cc2)cc1C(F)(F)F [Compound P-0210, 2-[4-[2-[[1-(difluoromethyl)pyrazol-4-yl]amino]pyrimidin-5-yl]phenyl]-N-[6-methyl-5-(trifluoromethyl)-3-pyridyl]acetamide] | 0.0001 to 10 | 0.0001 to 10 |
| COc1ncc(NC(=O)Cc2ccc(-c3cnc(Nc4cnn(C(F)F)c4)nc3)cc2)cc1C(F)(F)F [Compound P-0211, 2-[4-[2-[[1-(difluoromethyl)pyrazol-4-yl]amino]pyrimidin-5-yl]phenyl]-N-[6-methoxy-5-(trifluoromethyl)-3-pyridyl]acetamide] | 0.0001 to 10 | 0.0001 to 10 |

More lines, now with the values ahead:

| IC50 (FLT3-ITD) [µM] | IC50 (FLT3-D835Y) [µM] | Structure (SMILES) |
| --- | --- | --- |
| 0.0001 to 10 | 0.0001 to 10 | O=C(Cc1ccc(-c2cnc(Nc3cnn(C(F)F)c3)nc2)cc1)Nc1cc(C(F)(F)F)ccn1 [Compound P-0023, 2-[4-[2-[[1-(difluoromethyl)pyrazol-4-yl]amino]pyrimidin-5-yl]phenyl]-N-[4-(trifluoromethyl)-2-pyridyl]acetamide] |
| 0.0001 to 10 | 0.0001 to 10 | O=C(Cc1ccc(-c2cnc3[nH]c(-c4ccnc(N5CCOCC5)c4)cc3c2)c(F)c1)Nc1cncc(C(F)(F)F)c1 [Compound P-0201, 2-[3-fluoro-4-[2-(2-morpholino-4-pyridyl)-1H-pyrrolo[2,3-b]pyridin-5-yl]phenyl]-N-[5-(trifluoromethyl)-3-pyridyl]acetamide] |
| 0.0001 to 10 | 0.0001 to 10 | CCOc1n[nH]c2ncc(-c3ccc(CC(=O)Nc4cnc(OC)c(C(F)(F)F)c4)cc3F)cc12 [Compound P-0202, 2-[4-(3-ethoxy-1H-pyrazolo[3,4-b]pyridin-5-yl)-3-fluoro-phenyl]-N-[6-methoxy-5-(trifluoromethyl)-3-pyridyl]acetamide] |
| 0.0001 to 10 | 0.0001 to 10 | COc1ncc(NC(=O)Cc2ccc(-c3cnc4[nH]nc(N)c4c3)c(F)c2)cc1C(F)(F)F [Compound P-0203, 2-[4-(3-amino-1H-pyrazolo[3,4-b]pyridin-5-yl)-3-fluoro-phenyl]-N-[6-methoxy-5-(trifluoromethyl)-3-pyridyl]acetamide] |
| 0.0001 to 10 | 0.0001 to 10 | CC(C)(O)C#Cc1cc2cc(-c3ccc(CC(=O)Nc4cncc(C(F)(F)F)c4)cc3)cnc2[nH]1 [Compound P-0204, 2-[4-[2-(3-hydroxy-3-methyl-but-1-ynyl)-1H-pyrrolo[2,3-b]pyridin-5-yl]phenyl]-N-[5-(trifluoromethyl)-3-pyridyl]acetamide] |
